Tested on: Cricetinae gen. sp.
Test: In Vivo evaluation of the Compound for the percentage inhibition of HLE at 60 mg/kg dose by intravenous administration
Format: functional, Cricetulus griseus

Compound	inhibition in vivo at 60 mg/kg [%]
CC(C)c1cccc2c1C(=O)N(COC(=O)c1c(Cl)cccc1Cl)S2(=O)=O	47

Target: T1, Neutrophil elastase (Homo sapiens, UniProt P08246)
T1 sequence (P08246 whole entry): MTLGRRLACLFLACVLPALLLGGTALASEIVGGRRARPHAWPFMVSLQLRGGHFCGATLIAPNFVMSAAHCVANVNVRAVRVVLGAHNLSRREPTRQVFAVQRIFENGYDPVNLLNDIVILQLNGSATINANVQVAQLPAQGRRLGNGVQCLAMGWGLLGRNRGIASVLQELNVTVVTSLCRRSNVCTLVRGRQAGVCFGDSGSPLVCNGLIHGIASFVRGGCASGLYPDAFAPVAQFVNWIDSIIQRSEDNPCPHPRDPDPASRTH
Test: In vitro inhibition constant of human leukocyte elastase.

Compound	Ki [nM]
CC(C)c1cccc2c1C(=O)N(COC(=O)c1c(Cl)cccc1Cl)S2(=O)=O	0.03
O=C(OCN1C(=O)c2ccccc2S1(=O)=O)c1ccccc1	31
O=C(OCN1C(=O)c2c(-c3ccccc3)cccc2S1(=O)=O)c1c(Cl)cccc1Cl	1
CCc1cccc2c1C(=O)N(COC(=O)c1c(Cl)cccc1Cl)S2(=O)=O	0.17
CC(=O)OCN1C(=O)c2ccccc2S1(=O)=O	102
O=C(OCN1C(=O)c2ccccc2S1(=O)=O)c1c(C(F)(F)F)cccc1C(F)(F)F	37
CC(=O)Nc1cccc(Cl)c1C(=O)OCN1C(=O)c2ccccc2S1(=O)=O	18
Cc1cccc2c1C(=O)N(COC(=O)c1c(Cl)cccc1Cl)S2(=O)=O	2
CC(C)(C)c1cccc2c1C(=O)N(COC(=O)c1c(Cl)cccc1Cl)S2(=O)=O	26
CCC(C)c1cccc2c1C(=O)N(COC(=O)c1c(Cl)cccc1Cl)S2(=O)=O (stereo not given)	0.06

Further lines, results first:

Ki [nM]	Compound
8	COc1cccc(OC)c1C(=O)OCN1C(=O)c2ccccc2S1(=O)=O
8.5	O=C(OCN1C(=O)c2ccccc2S1(=O)=O)c1c(Br)cccc1Br
8	O=C(OCN1C(=O)c2ccccc2S1(=O)=O)c1c(F)cccc1F
4	Cc1cccc(C)c1C(=O)OCN1C(=O)c2ccccc2S1(=O)=O

From ChEMBL document CHEMBL1127614, “2,6-Disubstituted aryl carboxylic acids, leaving groups "par excellence" for benzisothiazolone inhibitors of human leukocyte elastase” (J Med Chem, 1994)
